Measured values published in publication PMC9569839, “Methionine 274 Is Not the Determining Factor for Selective Inhibition of Histone Deacetylase 8 (HDAC8) by L-Shaped Inhibitors” (International Journal of Molecular Sciences, 2022).
Changes are numbered by the printed parent chain. Like-named read-outs stand apart in the source and are kept apart here. One block for each molecule: values may come before it.

Legend:
[1] = tested on: HDAC6; conditions: cited from earlier work
[2] = tested on: HDAC8; conditions: cited from earlier work
[3] = tested on: HDAC2; conditions: cited from earlier work
[4] = tested on: HDAC1; conditions: cited from earlier work
[5] = tested on: HDAC4; conditions: cited from earlier work
[6] = tested on: HDAC10; conditions: cited from earlier work
[7] = tested on: HDAC11; set-up: method as in Huang et al. [14]; conditions: ref Huang et al. [14]; cited from earlier work
[8] = tested on: several cancer cell lines; set-up: method as in PMID 22907916; conditions: ref [14]; cited from earlier work
[9] = tested on: HDAC3; conditions: read-out: IC50 (HDAC3), cited from earlier work
[10] = target: T1, HDAC8M274A (Homo sapiens, UniProt Q9BY41, M274A); assay: Enzyme activity assay, IC50 determination with Boc-Lys(TFA)-AMC
T1 sequence (Q9BY41 1-377 M274A): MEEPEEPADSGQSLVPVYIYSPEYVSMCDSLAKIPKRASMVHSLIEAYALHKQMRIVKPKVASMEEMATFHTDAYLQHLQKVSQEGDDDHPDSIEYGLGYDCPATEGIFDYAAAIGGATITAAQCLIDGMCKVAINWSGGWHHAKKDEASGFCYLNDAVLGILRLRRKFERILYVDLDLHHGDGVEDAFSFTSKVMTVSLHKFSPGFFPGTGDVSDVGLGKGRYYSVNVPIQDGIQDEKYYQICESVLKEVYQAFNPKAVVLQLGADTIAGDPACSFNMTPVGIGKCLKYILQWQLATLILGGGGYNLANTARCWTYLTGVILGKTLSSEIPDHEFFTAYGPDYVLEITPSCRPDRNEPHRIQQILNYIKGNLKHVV

[11] = target: T2, HDAC8wt (Homo sapiens, UniProt Q9BY41); assay: as above
T2 sequence (Q9BY41 1-377): T1 sequence (Q9BY41 1-377 M274A) with A274M

[12] = ref Balasubramanian et al. [12]
[13] = TSA value of Figure 1, source not given

SMILES: O=C(CCCCCCC(=O)Nc1ccccc1)NO [SAHA, suberoylanilide hydroxamic acid]
IC50 [1, 12]: 17 nM

SMILES: CC(/C=C/C(=O)NO)=C\[C@@H](C)C(=O)c1ccc(N(C)C)cc1 [TSA, trichostatin A]
IC50 ([2]; read-out: IC50 (HDAC8), TSA value of Figure 1, source not given): 360 nM
IC50 [1, 13]: 17 nM
IC50 [5, 13]: 3300 nM

SMILES: COc1ccc(/C=C/C(=O)NO)c(-c2ccc(-c3ccccc3)cc2)c1 [o-ACHA]
IC50 ([6]; ref Huang et al. [14]): > 20000 nM
IC50 [7]: > 20000 nM
antiproliferative effects [8]: antiproliferative effects against several cancer cell lines
IC50 ([3]; ref Huang et al. [14]): > 20000 nM
IC50 ([4]; ref Huang et al. [14]): 3000 nM
IC50 ([1]; ref Huang et al. [14]): > 20000 nM
IC50 ([5]; ref Huang et al. [14]): > 20000 nM
IC50 ([9]; ref Huang et al. [14]): 3000 nM

IC50 [10]: 300 nM
IC50 [11]: 40 nM
SMILES: O=C(NO)c1cccc(-c2cn(CSc3ccccc3)nn2)c1 [NCC-149]
IC50 ([3]; ref Suzuki et al. [13]): > 100000 nM
IC50 ([4]; ref Suzuki et al. [13]): 38000 nM
IC50 ([1]; ref Suzuki et al. [13]): 2400 nM
IC50 ([5]; ref Suzuki et al. [13]): 44000 nM
IC50 ([9]; ref Suzuki et al. [13]): > 68000 nM
